{
  "source": "paper PMC9267955",
  "about": "“Antidiabetic, Antiglycation, and Antioxidant Activities of Ethanolic Seed Extract of Passiflora edulis and Piceatannol In Vitro” (Molecules, 2022)",
  "tested_on": "amyloid fibrils of glycated BSA (BSA/Fru + Glu)",
  "experiment": "Inhibition of amyloid fibril formation, ThT assay (BSA/Fru + Glu)",
  "type": "biochemical, bovine",
  "experimental": "The formation of AGEs was measured after incubation of a system containing protein and carbohydrates. This assay was based on previous methods. The reaction system was obtained by adding 300 µL of plant extract or of the pure compound (at different concentrations), 150 µL D-fructose (200 mM), 150 µL of D-glucose (200 mM), and 300 µL of bovine serum albumin (BSA, 3 mg/mL) to a test tube. All these solutions, except plant extract, were dissolved in 0.05 M potassium phosphate buffer (pH 7.4) containing NaCl (100 mM) and NaN3 (0.02% w/v). The plant extract was prepared in a buffer containing 60% ethanol. The mixture was incubated in the dark at 37 °C for 7 days with constant stirring. After the incubation, 200 µL of the reaction mixture was transferred to a 96-well black plate, and fluorescent AGEs were measured using a microplate reader (Infinite® 200 PRO, TECAN, Männedorf, Switzerland) at λex = 360 and λem = 440 nm. […] The fluorescence readings for the experimental treatment were blanked against extract blanks to eliminate the baseline fluorescence of the sample. The percentage of the AGE inhibition and IC50 was calculated as described in Section 3.3.1.\nThe fibrillar state of modified BSA was determined with ThT as previously described. ThT is a probe that binds directly to amyloid fibrils to give a strong fluorescent signal and thus can be used to quantify β-amyloid due to protein glycation. […]",
  "note": "Marks after values point to notes of the source that are not given here.",
  "data": [
    {"smiles": "Oc1cc(O)cc(/C=C/c2ccc(O)c(O)c2)c1", "note": "[PIC, 3,3′,4′,5-trans-tetrahydroxystilbene]", "values": [
      {"measurement": "Inhibition of the formation of β-amyloid fibrils in vitro", "setting": "abstract, glycation system not specified", "result": "up to 100%"},
      {"measurement": "Inhibition of Amyloid Fibrils (%), Fructose + Glucose", "setting": "highest obtained, PESE 200, PIC 200, AMG 100 µg/mL, BSA/Fru + Glu", "result": "100 ± 5.3 ^a %"}
    ]}
  ]
}
